Measured values taken from patent publication US20040260060A1, “Constructs modified downstreams of the initiation codon for recombinant protein” (priority 2000, published 2004).

Experiments:
TOP10 x pTEXCAT bacteria = assay: Chloramphenicol resistance of TOP10 x pTEXCAT bacteria on agar dishes, colony count and growth; assay type: cell-based, E. coli; design: key to qualitative criterion of colony growth: −: absence of growth; +++: maximum growth; conditions: for number of colonies counted: 18 h at 37° C., approximately 100 cells seeded
Description: The libraries are screened based on the hypothesis that the clones overexpressing the CAT enzyme will have increased resistance to chloramphenicol.
The numbers (upper row) indicate the number of colonies counted after incubation for 18 h at 37° C., each medium having been seeded with approximately 100 cells.
The index of the lower row is a qualitative criterion of colony growth (−=absence of growth to +++=maximum growth).
This implies that clones which overproduce CAT due to an optimized RBS region may either develop more rapidly than the wild-type population at a chloramphenicol concentration lower than the MIC (mininimum inhibitory concentration), or develop in the presence of chloramphenicol concentrations which are lethal for the wild-type population.

[1] = test system: chloramphenicol acetyltransferase (CAT) reporter gene; assay: Level of CAT expression by ELISA after IAA induction in Erlenmeyer flask cultures; assay type: cell-based, E. coli; conditions: for CAT expression: relative to wild-type vector pTEXwt = 1
Excerpt: The supernatant is marked “S”.
The results (mean±standard deviation) were obtained on two independent experiments. […]
The methods for determining the expression are those used in the examples above.

[2] = test system: chloramphenicol acetyltransferase (CAT); conditions: IAA-induced extracts
Description: The resistant colonies are isolated and subcultured several times on the selection medium in order to confirm their resistance phenotype. The clones selected at this stage are then subjected to a series of analyses: (i) extraction of the plasmid (Qiagen kit, Hilden, Germany) and sequencing of the region covering the RBS, (ii) culturing in Erlenmeyer flasks with induction by IAA and then estimation of the level of CAT expression by ELISA assay, (iii) electrophoresis, by SDS-PAGE, of the total proteins extracted from the preceding cultures and staining with Coomassie Blue to visualize total intracellular proteins. The clones are sequenced using the Dye Terminator kit on an ABI 373A sequencer (Perkin Elmer Applied Biosystems, Foster City, Calif.). The cultures in Erlenmeyer flasks are prepared by seeding 25 ml of TSBY (30 g/l tryptic soy broth (DIFCO)+5 g/l yeast extract (Difco)) medium+8 mg/l tetracycline with a colony on a dish or with a bacterial suspension stored at −80° C. Each preculture is incubated on a platform shaken at 200 rpm, at 37° C. overnight. A fraction is transferred into 50 ml of the same medium so as to reach an initial optical density equal to 1. […] The total proteins contained in the I and S fractions are analyzed by electrophoresis under denaturing conditions (SDS-PAGE) and staining with Coomassie Blue.

[3] = chloramphenicol 200 μg/ml, IAA = 0
[4] = chloramphenicol 200 μg/ml, IAA = 25 μg/ml
[5] = chloramphenicol 300 μg/ml, IAA = 25 μg/ml
[6] = chloramphenicol 600 μg/ml, IAA = 0
[7] = chloramphenicol 600 μg/ml, IAA = 25 μg/ml
[8] = chloramphenicol 700 μg/ml, IAA = 0
[9] = chloramphenicol 700 μg/ml, IAA = 25 μg/ml
[10] = chloramphenicol 800 μg/ml, IAA = 0
[11] = chloramphenicol 800 μg/ml, IAA = 25 μg/ml

For O=C(N[C@H](CO)[C@H](O)c1ccc([N+](=O)[O-])cc1)C(Cl)Cl [Chloramphenicol, chloramphenicol], which “qualitative criterion of colony growth” value (TOP10 x pTEXCAT bacteria; [3]) is on record?
Its value is “+++”.

What about the “number of colonies counted” value (TOP10 x pTEXCAT bacteria; [3]) of the same molecule?
The value was 91.

And the “qualitative criterion of colony growth” value (TOP10 x pTEXCAT bacteria; [4])?
Its value is “+++”.

And the “number of colonies counted” value (TOP10 x pTEXCAT bacteria; [4])?
The value was 65.

What about the “number of colonies counted” value (TOP10 x pTEXCAT bacteria; chloramphenicol 300 μg/ml, IAA = 0) of the same molecule?
Its value is 74.

What about the “qualitative criterion of colony growth” value (TOP10 x pTEXCAT bacteria; [5]) of the same molecule?
The value was “+++”.

And the “number of colonies counted” value (TOP10 x pTEXCAT bacteria; [5])?
The value was 76.

And the “number of colonies counted” value (TOP10 x pTEXCAT bacteria; chloramphenicol 400 μg/ml, IAA = 0)?
The value was 73.

What about the “number of colonies counted” value (TOP10 x pTEXCAT bacteria; chloramphenicol 400 μg/ml, IAA = 25 μg/ml) of the same molecule?
The value was 53.

What about the “number of colonies counted” value (TOP10 x pTEXCAT bacteria; chloramphenicol 500 μg/ml, IAA = 0) of the same molecule?
Its value is 47.

And the “number of colonies counted” value (TOP10 x pTEXCAT bacteria; chloramphenicol 500 μg/ml, IAA = 25 μg/ml)?
Its value is 71.

And the “qualitative criterion of colony growth” value (TOP10 x pTEXCAT bacteria; [6])?
Its value is “−”.

What about the “number of colonies counted” value (TOP10 x pTEXCAT bacteria; [6]) of the same molecule?
Its value is 0.

And the “qualitative criterion of colony growth” value (TOP10 x pTEXCAT bacteria; [7])?
The value was “−”.

And the “number of colonies counted” value (TOP10 x pTEXCAT bacteria; [7])?
Its value is 1.

What about the “qualitative criterion of colony growth” value (TOP10 x pTEXCAT bacteria; [8]) of the same molecule?
Its value is “−”.

What about the “number of colonies counted” value (TOP10 x pTEXCAT bacteria; [8]) of the same molecule?
The value was 0.

And the “qualitative criterion of colony growth” value (TOP10 x pTEXCAT bacteria; [9])?
The value was “−”.

And the “number of colonies counted” value (TOP10 x pTEXCAT bacteria; [9])?
Its value is 0.

And the “qualitative criterion of colony growth” value (TOP10 x pTEXCAT bacteria; [10])?
The value was “−”.

And the “number of colonies counted” value (TOP10 x pTEXCAT bacteria; [10])?
The value was 0.

And the “qualitative criterion of colony growth” value (TOP10 x pTEXCAT bacteria; [11])?
The value was “−”.

What about the “number of colonies counted” value (TOP10 x pTEXCAT bacteria; [11]) of the same molecule?
Its value is 0.

O=C(O)C=Cc1c[nH]c2ccccc12 [IAA, 3-β indole acrylic acid] was tested. Which “development of TOP10 x pTEXCAT bacteria in the presence of IAA versus its absence” value (TOP10 x pTEXCAT bacteria; between 300 and 600 μg/ml of chloramphenicol) did it give?
The value was “more strongly”.

How did the CAT expression [1] turn out when “pTEX9′: clone from the (R7N6) library, SEQ ID No. 31, deletion of region Ile4Asn8 (DNA UGAGGAGAGUAAUCAUGAAAGCAGCGGAAUUC; expressed or natural sequence)” was run?
The CAT expression was 249.

How did the CAT expression [1] turn out when “pTEX10′: vector derived from pTEX9′ with additional deletion, SEQ ID No. 33 (DNA UGAGGAGAGUAAUCAUGAAAGCAGAAUUC)” was run?
Its CAT expression is 253.

For “pTEX11′: vector derived from pTEX9′ with additional deletion, SEQ ID No. 35 (DNA UGAGGAGAGUAAUCAUGAAAGAAUUC)”, which CAT expression [1] is on record?
Its CAT expression is 124.

“pTEX12′: vector derived from pTEX9′, initiation codon directly upstream of the cloning site, SEQ ID No. 37 (DNA UGAGGAGAGUAAUCAUGGAAUUC)” was tested. Which CAT expression [1] did it give?
Its CAT expression is 155.

With “pTEXCAT: wild-type reference plasmid: pTEXmp18 (Ptrp promoter, TrpL leader) with the CAT reporter gene cloned at EcoRI/PstI; SEQ ID No. 19 (DNA AAGGGUAUCUAGAAUUAUGAAAGCAAUUUUCGUACUGAAUGCGGAAUUC)” as the molecule, how does the “CAT band (28 kDa) on SDS-PAGE gel” value [2] read?
The value was “only a band of low intensity”.

What about the CAT expression [1] of the same molecule?
Its CAT expression is 1.

And the “Level of CAT expression” value ([1]; relative, level 1 arbitrarily assigned to pTEXCAT, mean±standard deviation of two independent experiments)?
Its value is 1.
